Assay: Sensory evaluation of Vermont drink containing the agent
Settings: ten panels
In short: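 Tridecadienal or tridecatrienal isomers added at various concentrations to a Vermont-flavoured drink (apple-cider vinegar, honey, liquid sugar, citric acid, trisodium citrate, 100 mL total). Ten panelists assessed acid taste/acid smell and aldehyde-type off-odour, and the concentration giving the best acid taste/smell quality was selected.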

In the case of `CCCCC/C=C/C/C=C/CCC=O` [(E,E)-4,7-tridecadienal], the “A: number of panels, acid taste/acid smell extreme and cause irritation” value (0.005 ppt) is reported as 10, the “B: number of panels, acid taste/acid smell slightly strong and slightly cause irritation” value (0.005 ppt) is reported as 0 and the “C: number of panels, acid taste/acid smell slightly unpleasant” value (0.005 ppt) is reported as 0. The “Flavor judgment: number of panels who judged acid taste/acid smell quality the highest” value (0.005 ppt) was 0, the “N: number of panels, irritation of acid reduced to give a mild acid taste” value (0.005 ppt) was 0 and the “X: number of panels, acid taste reduced but piercing odor characteristic to aldehydes unpleasant” value (0.005 ppt) was 0. For the same molecule, the “A: number of panels, acid taste/acid smell extreme and cause irritation” value (0.02 ppt) was 10, the “B: number of panels, acid taste/acid smell slightly strong and slightly cause irritation” value (0.02 ppt) was 0 and the “C: number of panels, acid taste/acid smell slightly unpleasant” value (0.02 ppt) was 0. For the same molecule, the “Flavor judgment: number of panels who judged acid taste/acid smell quality the highest” value (0.02 ppt) was 0, the “N: number of panels, irritation of acid reduced to give a mild acid taste” value (0.02 ppt) was 0 and the “X: number of panels, acid taste reduced but piercing odor characteristic to aldehydes unpleasant” value (0.02 ppt) was 0. The “A: number of panels, acid taste/acid smell extreme and cause irritation” value (0.1 ppt) was 10, the “B: number of panels, acid taste/acid smell slightly strong and slightly cause irritation” value (0.1 ppt) was 0 and the “C: number of panels, acid taste/acid smell slightly unpleasant” value (0.1 ppt) was 0. The “Flavor judgment: number of panels who judged acid taste/acid smell quality the highest” value (0.1 ppt) was 0, the “N: number of panels, irritation of acid reduced to give a mild acid taste” value (0.1 ppt) was 0 and the “X: number of panels, acid taste reduced but piercing odor characteristic to aldehydes unpleasant” value (0.1 ppt) was 0. For the same molecule, the “A: number of panels, acid taste/acid smell extreme and cause irritation” value (0.2 ppt) was 8, the “B: number of panels, acid taste/acid smell slightly strong and slightly cause irritation” value (0.2 ppt) was 2 and the “C: number of panels, acid taste/acid smell slightly unpleasant” value (0.2 ppt) was 0. The “Flavor judgment: number of panels who judged acid taste/acid smell quality the highest” value (0.2 ppt) was 0, the “N: number of panels, irritation of acid reduced to give a mild acid taste” value (0.2 ppt) was 0 and the “X: number of panels, acid taste reduced but piercing odor characteristic to aldehydes unpleasant” value (0.2 ppt) was 0. For the same molecule, the “A: number of panels, acid taste/acid smell extreme and cause irritation” value (0.5 ppt) was 6, the “B: number of panels, acid taste/acid smell slightly strong and slightly cause irritation” value (0.5 ppt) was 2 and the “C: number of panels, acid taste/acid smell slightly unpleasant” value (0.5 ppt) was 2. The “Flavor judgment: number of panels who judged acid taste/acid smell quality the highest” value (0.5 ppt) was 0, the “N: number of panels, irritation of acid reduced to give a mild acid taste” value (0.5 ppt) was 0 and the “X: number of panels, acid taste reduced but piercing odor characteristic to aldehydes unpleasant” value (0.5 ppt) was 0. For the same molecule, the “A: number of panels, acid taste/acid smell extreme and cause irritation” value (1 ppb) was 0, the “B: number of panels, acid taste/acid smell slightly strong and slightly cause irritation” value (1 ppb) was 0 and the “C: number of panels, acid taste/acid smell slightly unpleasant” value (1 ppb) was 3. For the same molecule, the “Flavor judgment: number of panels who judged acid taste/acid smell quality the highest” value (1 ppb) was 0, the “N: number of panels, irritation of acid reduced to give a mild acid taste” value (1 ppb) was 4 and the “X: number of panels, acid taste reduced but piercing odor characteristic to aldehydes unpleasant” value (1 ppb) was 3. The “A: number of panels, acid taste/acid smell extreme and cause irritation” value (1 ppt) was 0, the “B: number of panels, acid taste/acid smell slightly strong and slightly cause irritation” value (1 ppt) was 4 and the “C: number of panels, acid taste/acid smell slightly unpleasant” value (1 ppt) was 5. The “Flavor judgment: number of panels who judged acid taste/acid smell quality the highest” value (1 ppt) was 0, the “N: number of panels, irritation of acid reduced to give a mild acid taste” value (1 ppt) was 1 and the “X: number of panels, acid taste reduced but piercing odor characteristic to aldehydes unpleasant” value (1 ppt) was 0. For the same molecule, the “A: number of panels, acid taste/acid smell extreme and cause irritation” value (5 ppt) was 0, the “B: number of panels, acid taste/acid smell slightly strong and slightly cause irritation” value (5 ppt) was 1 and the “C: number of panels, acid taste/acid smell slightly unpleasant” value (5 ppt) was 3. For the same molecule, the “Flavor judgment: number of panels who judged acid taste/acid smell quality the highest” value (5 ppt) was 4, the “N: number of panels, irritation of acid reduced to give a mild acid taste” value (5 ppt) was 6 and the “X: number of panels, acid taste reduced but piercing odor characteristic to aldehydes unpleasant” value (5 ppt) was 0. The “A: number of panels, acid taste/acid smell extreme and cause irritation” value (10 ppb) was 0, the “B: number of panels, acid taste/acid smell slightly strong and slightly cause irritation” value (10 ppb) was 0 and the “C: number of panels, acid taste/acid smell slightly unpleasant” value (10 ppb) was 1. For the same molecule, the “Flavor judgment: number of panels who judged acid taste/acid smell quality the highest” value (10 ppb) was 0, the “N: number of panels, irritation of acid reduced to give a mild acid taste” value (10 ppb) was 3 and the “X: number of panels, acid taste reduced but piercing odor characteristic to aldehydes unpleasant” value (10 ppb) was 6. For the same molecule, the “A: number of panels, acid taste/acid smell extreme and cause irritation” value (20 ppt) was 0, the “B: number of panels, acid taste/acid smell slightly strong and slightly cause irritation” value (20 ppt) was 0 and the “C: number of panels, acid taste/acid smell slightly unpleasant” value (20 ppt) was 3. The “Flavor judgment: number of panels who judged acid taste/acid smell quality the highest” value (20 ppt) was 3, the “N: number of panels, irritation of acid reduced to give a mild acid taste” value (20 ppt) was 7 and the “X: number of panels, acid taste reduced but piercing odor characteristic to aldehydes unpleasant” value (20 ppt) was 0. For the same molecule, the “A: number of panels, acid taste/acid smell extreme and cause irritation” value (50 ppb) was 0, the “B: number of panels, acid taste/acid smell slightly strong and slightly cause irritation” value (50 ppb) was 0 and the “C: number of panels, acid taste/acid smell slightly unpleasant” value (50 ppb) was 0. The “Flavor judgment: number of panels who judged acid taste/acid smell quality the highest” value (50 ppb) was 0, the “N: number of panels, irritation of acid reduced to give a mild acid taste” value (50 ppb) was 3 and the “X: number of panels, acid taste reduced but piercing odor characteristic to aldehydes unpleasant” value (50 ppb) was 7. For the same molecule, the “A: number of panels, acid taste/acid smell extreme and cause irritation” value (100 ppt) was 0, the “B: number of panels, acid taste/acid smell slightly strong and slightly cause irritation” value (100 ppt) was 0 and the “C: number of panels, acid taste/acid smell slightly unpleasant” value (100 ppt) was 3. For the same molecule, the “Flavor judgment: number of panels who judged acid taste/acid smell quality the highest” value (100 ppt) was 3, the “N: number of panels, irritation of acid reduced to give a mild acid taste” value (100 ppt) was 7 and the “X: number of panels, acid taste reduced but piercing odor characteristic to aldehydes unpleasant” value (100 ppt) was 0. The “A: number of panels, acid taste/acid smell extreme and cause irritation” value (500 ppt) was 0, the “B: number of panels, acid taste/acid smell slightly strong and slightly cause irritation” value (500 ppt) was 2 and the “C: number of panels, acid taste/acid smell slightly unpleasant” value (500 ppt) was 3. For the same molecule, the “Flavor judgment: number of panels who judged acid taste/acid smell quality the highest” value (500 ppt) was 0, the “N: number of panels, irritation of acid reduced to give a mild acid taste” value (500 ppt) was 3 and the “X: number of panels, acid taste reduced but piercing odor characteristic to aldehydes unpleasant” value (500 ppt) was 2.

Source: patent US20140120232A1, “ACID TASTE/ACID SMELL-REDUCING AGENT” (T. HASEGAWA CO., LTD., priority 2011, published 2014)
